According to patent US10111890B2, “9-aminomethyl minocycline compounds and uses thereof” (Paratek Pharmaceuticals, Inc., priority 2016, dated 2018):

Key:
[1] = test system: ABSSSI known or suspected to be due to Gram-positive pathogens; test: Phase 3 oral omadacycline vs oral linezolid in ABSSSI: Early Clinical Response 48-72 hours after first dose; type: in vivo, human; conditions: for Early Clinical Success, %: micro-mITT, % of N1
ABSSSI = test: Earlier Phase 3 i.v.-to-oral omadacycline vs linezolid study in ABSSSI: clinical success; type: in vivo, human; conditions: i.v. with switch to oral
[2] = human, in vivo
[3] = test system: ABSSSI known or suspected to be due to Gram-positive pathogens; test: Phase 3 oral omadacycline vs oral linezolid in ABSSSI: Investigator's Assessment of Clinical Response at PTE; type: in vivo, human; conditions: for Overall Clinical Success at PTE, %: micro-mITT, % of N1
[4] = 48-72 hours after first dose, mITT population
[5] = Cellulitis/erysipelas, actual type, 48-72 hours, mITT
[6] = Cellulitis/erysipelas, as randomized, 48-72 hours, mITT
[7] = Major Abscess, actual type, 48-72 hours, mITT
[8] = Major Abscess, as randomized, 48-72 hours, mITT
[9] = Wound Infection, actual type, 48-72 hours, mITT
[10] = Wound Infection, as randomized, 48-72 hours, mITT
[11] = Cellulitis/erysipelas, actual type, mITT
[12] = Cellulitis/erysipelas, as randomized, mITT
[13] = Major Abscess, actual type, mITT
[14] = Major Abscess, as randomized, mITT
[15] = Wound Infection, actual type, mITT
[16] = Wound Infection, as randomized, mITT

CC(=O)NCC1CN(c2ccc(N3CCOCC3)c(F)c2)C(=O)O1 (stereo not drawn) [Linezolid, N-[[3-(3-fluoro-4-morpholinophenyl)-2-oxooxazolidin-5-yl]methyl]acetamide, reference compound]
Early Clinical Response: Clinical Failure [1, 4]: 32 (8.9) n (%) | Early Clinical Response: Clinical Failure or Indeterminate [1, 4]: 63 (17.5) n (%) | Early Clinical Response: Indeterminate [1, 4]: 31 (8.6) n (%) | Early Clinical Response: Clinical Success ([1]; 48-72 hours after first dose, mITT population (N = 360 per arm)): 297 (82.5) n (%) | Early Clinical Response: Clinical Success ([1]; Cellulitis/erysipelas, actual type of infection, 48-72 hours, mITT): 65 (77.4) n (%) | Early Clinical Response: Clinical Failure [1, 5]: 12 (14.3) n (%) | Early Clinical Response: Clinical Failure or Indeterminate [1, 5]: 19 (22.6) n (%) | Early Clinical Response: Indeterminate [1, 5]: 7 (8.3) n (%) | Early Clinical Response: Clinical Failure [1, 6]: 12 (14.3) n (%) | Early Clinical Response: Clinical Failure or Indeterminate [1, 6]: 19 (22.6) n (%) | Early Clinical Response: Indeterminate [1, 6]: 7 (8.3) n (%) | Early Clinical Response: Clinical Success ([1]; Cellulitis/erysipelas, type of infection as randomized, 48-72 hours, mITT): 65 (77.4) n (%) | Early Clinical Response: Clinical Success ([1]; Major Abscess, actual type of infection, 48-72 hours, mITT): 55 (88.7) n (%) | Early Clinical Response: Clinical Failure [1, 7]: 4 (6.5) n (%) | Early Clinical Response: Clinical Failure or Indeterminate [1, 7]: 7 (11.3) n (%) | Early Clinical Response: Indeterminate [1, 7]: 3 (4.8) n (%) | Early Clinical Response: Clinical Failure [1, 8]: 4 (6.5) n (%) | Early Clinical Response: Clinical Failure or Indeterminate [1, 8]: 7 (11.3) n (%) | Early Clinical Response: Indeterminate [1, 8]: 3 (4.8) n (%) | Early Clinical Response: Clinical Success ([1]; Major Abscess, type of infection as randomized, 48-72 hours, mITT): 55 (88.7) n (%) | Early Clinical Response: Clinical Success ([1]; Wound Infection, actual type of infection, 48-72 hours, mITT): 177 (82.7) n (%) | Early Clinical Response: Clinical Failure [1, 9]: 16 (7.5) n (%) | Early Clinical Response: Clinical Failure or Indeterminate [1, 9]: 37 (17.3) n (%) | Early Clinical Response: Indeterminate [1, 9]: 21 (9.8) n (%) | Early Clinical Response: Clinical Failure [1, 10]: 16 (7.5) n (%) | Early Clinical Response: Clinical Failure or Indeterminate [1, 10]: 37 (17.3) n (%) | Early Clinical Response: Indeterminate [1, 10]: 21 (9.8) n (%) | Early Clinical Response: Clinical Success ([1]; Wound Infection, type of infection as randomized, 48-72 hours, mITT): 177 (82.7) n (%) | Early Clinical Success, % ([1]; baseline pathogen Clostridium perfringens, 48-72 hours after first dose): (100.0) % | Early Clinical Success, % ([1]; baseline pathogen Enterobacter cloacae, 48-72 hours after first dose): (83.3) % | Early Clinical Success, % ([1]; baseline pathogen Enterococcus faecalis VRE, 48-72 hours after first dose): (100.0) % | Early Clinical Success, % ([1]; baseline pathogen Enterococcus faecalis VSE, 48-72 hours after first dose): (60.0) % | Early Clinical Success, % ([1]; baseline pathogen Enterococcus faecalis, 48-72 hours after first dose): (66.7) % | Early Clinical Success, % ([1]; baseline pathogen Enterococcus faecium VSE, 48-72 hours after first dose): (100.0) % | Early Clinical Success, % ([1]; baseline pathogen Enterococcus faecium, 48-72 hours after first dose): (100.0) % | Early Clinical Success, % ([1]; baseline pathogen Escherichia coli, 48-72 hours after first dose): (100.0) % | Early Clinical Success, % ([1]; baseline pathogen Finegoldia magna, 48-72 hours after first dose): (0.0) % | Early Clinical Success, % ([1]; baseline pathogen Klebsiella pneumoniae, 48-72 hours after first dose): (83.3) % | Early Clinical Success, % ([1]; baseline pathogen MRSA, 48-72 hours after first dose): (88.8) % | Early Clinical Success, % ([1]; baseline pathogen MSSA, 48-72 hours after first dose): (79.2) % | Early Clinical Success, % ([1]; baseline pathogen Prevotella denticola, 48-72 hours after first dose): (100.0) % | Early Clinical Success, % ([1]; baseline pathogen Prevotella melaninogenica, 48-72 hours after first dose): (100.0) % | Early Clinical Success, % ([1]; baseline pathogen Staphylococcus aureus, 48-72 hours after first dose): (83.3) % | Early Clinical Success, % ([1]; baseline pathogen Streptococcus agalactiae, 48-72 hours after first dose): (50.0) % | Early Clinical Success, % ([1]; baseline pathogen Streptococcus anginosus group, 48-72 hours after first dose): (80.0) % | Early Clinical Success, % ([1]; baseline pathogen Streptococcus anginosus, 48-72 hours after first dose): (85.0) % | Early Clinical Success, % ([1]; baseline pathogen Streptococcus constellatus, 48-72 hours after first dose): (100.0) % | Early Clinical Success, % ([1]; baseline pathogen Streptococcus intermedius, 48-72 hours after first dose): (75.0) % | Early Clinical Success, % ([1]; baseline pathogen Streptococcus pyogenes, 48-72 hours after first dose): (81.3) % | clinical success based on investigator's assessment of clinical response (ABSSSI; 7-14 days after the last dose): 83.6% | clinical success based on a reduction of lesion size (ABSSSI; 48-72 hours after the first dose, FDA primary analysis population (N=627)): 85.5% | discontinuation due to TEAE, % of subjects [2]: 2.2% | serious TEAEs, % of subjects [2]: 2.5% | treatment-emergent adverse events (TEAEs), % of subjects [2]: 45.7% | Overall clinical response at PTE: Clinical Success ([3]; Cellulitis/erysipelas, actual type of infection, investigator assessment, mITT): 78 (92.9) n (%) | Overall clinical response at PTE: Clinical Failure [3, 11]: 1 (1.2) n (%) | Overall clinical response at PTE: Clinical Failure or Indeterminate [3, 11]: 6 (7.1) n (%) | Overall clinical response at PTE: Indeterminate [3, 11]: 5 (6.0) n (%) | Overall clinical response at PTE: Clinical Failure [3, 12]: 1 (1.2) n (%) | Overall clinical response at PTE: Clinical Failure or Indeterminate [3, 12]: 6 (7.1) n (%) | Overall clinical response at PTE: Indeterminate [3, 12]: 5 (6.0) n (%) | Overall clinical response at PTE: Clinical Success ([3]; Cellulitis/erysipelas, type of infection as randomized, investigator assessment, mITT): 78 (92.9) n (%) | Overall clinical response at PTE: Clinical Success ([3]; Major Abscess, actual type of infection, investigator assessment, mITT): 49 (79.0) n (%) | Overall clinical response at PTE: Clinical Failure [3, 13]: 3 (4.8) n (%) | Overall clinical response at PTE: Clinical Failure or Indeterminate [3, 13]: 13 (21.0) n (%) | Overall clinical response at PTE: Indeterminate [3, 13]: 10 (16.1) n (%) | Overall clinical response at PTE: Clinical Failure [3, 14]: 3 (4.8) n (%) | Overall clinical response at PTE: Clinical Failure or Indeterminate [3, 14]: 13 (21.0) n (%) | Overall clinical response at PTE: Indeterminate [3, 14]: 10 (16.1) n (%) | Overall clinical response at PTE: Clinical Success ([3]; Major Abscess, type of infection as randomized, investigator assessment, mITT): 49 (79.0) n (%) | Overall clinical response at PTE: Clinical Success ([3]; Wound Infection, actual type of infection, investigator assessment, mITT): 164 (76.6) n (%) | Overall clinical response at PTE: Clinical Failure [3, 15]: 17 (7.9) n (%) | Overall clinical response at PTE: Clinical Failure or Indeterminate [3, 15]: 50 (23.4) n (%) | Overall clinical response at PTE: Indeterminate [3, 15]: 33 (15.4) n (%) | Overall clinical response at PTE: Clinical Failure [3, 16]: 17 (7.9) n (%) | Overall clinical response at PTE: Clinical Failure or Indeterminate [3, 16]: 50 (23.4) n (%) | Overall clinical response at PTE: Indeterminate [3, 16]: 33 (15.4) n (%) | Overall clinical response at PTE: Clinical Success ([3]; Wound Infection, type of infection as randomized, investigator assessment, mITT): 164 (76.6) n (%) | Overall Clinical Success at PTE, % ([3]; baseline pathogen Clostridium perfringens, investigator assessment): (77.8) % | Overall Clinical Success at PTE, % ([3]; baseline pathogen Enterobacter cloacae, investigator assessment): (100.0) % | Overall Clinical Success at PTE, % ([3]; baseline pathogen Enterococcus faecalis VRE, investigator assessment): (100.0) % | Overall Clinical Success at PTE, % ([3]; baseline pathogen Enterococcus faecalis VSE, investigator assessment): (70.0) % | Overall Clinical Success at PTE, % ([3]; baseline pathogen Enterococcus faecalis, investigator assessment): (75.0) % | Overall Clinical Success at PTE, % ([3]; baseline pathogen Enterococcus faecium VSE, investigator assessment): (100.0) % | Overall Clinical Success at PTE, % ([3]; baseline pathogen Enterococcus faecium, investigator assessment): (100.0) % | Overall Clinical Success at PTE, % ([3]; baseline pathogen Escherichia coli, investigator assessment): (100.0) % | Overall Clinical Success at PTE, % ([3]; baseline pathogen Finegoldia magna, investigator assessment): (0.0) % | Overall Clinical Success at PTE, % ([3]; baseline pathogen Klebsiella pneumoniae, investigator assessment): (66.7) % | Overall Clinical Success at PTE, % ([3]; baseline pathogen MRSA, investigator assessment): (79.4) % | Overall Clinical Success at PTE, % ([3]; baseline pathogen MSSA, investigator assessment): (79.2) % | Overall Clinical Success at PTE, % ([3]; baseline pathogen Prevotella denticola, investigator assessment): (0.0) % | Overall Clinical Success at PTE, % ([3]; baseline pathogen Prevotella melaninogenica, investigator assessment): (100.0) % | Overall Clinical Success at PTE, % ([3]; baseline pathogen Staphylococcus aureus, investigator assessment): (79.8) % | Overall Clinical Success at PTE, % ([3]; baseline pathogen Streptococcus agalactiae, investigator assessment): (50.0) % | Overall Clinical Success at PTE, % ([3]; baseline pathogen Streptococcus anginosus group, investigator assessment): (73.3) % | Overall Clinical Success at PTE, % ([3]; baseline pathogen Streptococcus anginosus, investigator assessment): (80.0) % | Overall Clinical Success at PTE, % ([3]; baseline pathogen Streptococcus constellatus, investigator assessment): (71.4) % | Overall Clinical Success at PTE, % ([3]; baseline pathogen Streptococcus intermedius, investigator assessment): (66.7) % | Overall Clinical Success at PTE, % ([3]; baseline pathogen Streptococcus pyogenes, investigator assessment): (56.3) % | Overall clinical response at PTE: Clinical Failure ([3]; investigator assessment, CE-PTE): 13 (4.5) n (%) | Overall clinical response at PTE: Clinical Success ([3]; investigator assessment, CE-PTE (N = 284 / N = 292)): 279 (95.5) n (%) | Overall clinical response at PTE: Clinical Failure ([3]; investigator assessment, mITT): 21 (5.8) n (%) | Overall clinical response at PTE: Clinical Failure or Indeterminate ([3]; investigator assessment, mITT): 69 (19.2) n (%) | Overall clinical response at PTE: Indeterminate ([3]; investigator assessment, mITT): 48 (13.3) n (%) | Overall clinical response at PTE: Clinical Success ([3]; investigator assessment, mITT (N = 360 per arm)): 291 (80.8) n (%)
